# Assay results: patent US20130244999A1, “Substituted Heterocyclic Compounds” (Incyte Corporation, priority 2008, published 2013)
# Target: T1, histamine H4 receptor (Homo sapiens, UniProt Q9H3N8)
# T1 construct: expressed in transfected cells; host or cells: HEK293SFM cells (membrane preparation)
# Test: Inhibition of histamine H4 receptor (Table A1; H4 membrane binding assay)
# Settings: for IC50: histamine H4 receptor, "> a" = exceeds experiment limit
# Summary of the method: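 Membranes came from recombinant HEK293SFM cells expressing human H4, homogenized in 50 mM Tris-HCl pH 7.5 with protease inhibitors. Nonspecific binding was set with 1000× unlabeled ligand. Bound radioligand was separated on PEI-treated GF/B filters and counted by liquid scintillation.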
# T1 sequence (Q9H3N8 whole entry): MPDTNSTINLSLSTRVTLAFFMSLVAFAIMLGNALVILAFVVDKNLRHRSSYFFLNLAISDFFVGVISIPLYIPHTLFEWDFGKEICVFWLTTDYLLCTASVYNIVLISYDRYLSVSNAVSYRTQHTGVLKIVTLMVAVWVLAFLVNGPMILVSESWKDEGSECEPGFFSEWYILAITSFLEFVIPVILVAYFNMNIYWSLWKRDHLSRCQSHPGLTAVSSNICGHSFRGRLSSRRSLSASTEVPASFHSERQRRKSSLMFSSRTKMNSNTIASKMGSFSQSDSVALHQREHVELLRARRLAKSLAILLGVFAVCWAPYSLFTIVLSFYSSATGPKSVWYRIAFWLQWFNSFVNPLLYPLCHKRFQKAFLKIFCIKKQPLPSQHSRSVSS
Structure (SMILES),IC50 [nM],inhibition at 1 µM [%]
"CC1Cc2ccc(-c3ccc(C(=O)N4CCCC4)nc3)cc2CN1c1cc(N2CCN(C)CC2)nc(N)n1 (single isomer, unassigned) [Example 55A]",95,–
"CC1Cc2ccc(-c3cnn(C(C)C)c3)cc2CN1c1cc(N2CCN(C)CC2)nc(N)n1 (single isomer, unassigned) [Example 105, 4-[7-(1-Isopropyl-1H-pyrazol-4-yl)-3-methyl-3,4-dihydroisoquinolin-2(1H)-yl]-6-(4-methylpiperazin-1-yl)pyrimidin-2-amine]",53,–
"CCNC(=O)c1ccc(-c2ccc3c(c2)CN(c2cc(N4CCN(C)CC4)nc(N)n2)C(C)C3)nc1 (single isomer, unassigned) [Example 71, 6-{2-[2-Amino-6-(4-methylpiperazin-1-yl)pyrimidin-4-yl]-3-methyl-1,2,3,4-tetrahydroisoquinolin-7-yl}-N-ethylnicotinamide]",153,–
"CNC(=O)c1ccc(-c2cc3c(cc2F)CCN(c2cc(N4CCN(C)CC4)nc(N)n2)C3)cn1 [Example 127, 5-{2-[2-Amino-6-(4-methylpiperazin-1-yl)pyrimidin-4-yl]-6-fluoro-1,2,3,4-tetrahydroisoquinolin-7-yl}-N-methylpyridine-2-carboxamide]",104,–
"CC(C)NC(=O)c1cc(-c2ccc3c(c2)CN(c2cc(N4CCN(C)CC4)nc(N)n2)C(C)C3)cn1C (single isomer, unassigned) [Example 90A, 4-{2-[2-Amino-6-(4-methylpiperazin-1-yl)pyrimidin-4-yl]-3-methyl-1,2,3,4-tetrahydroisoquinolin-7-yl}-N-isopropyl-1-methyl-1H-pyrrole-2-carboxamide]",66,–
"CC1Cc2ccc(-c3cnn(CC(N)=O)c3)cc2CN1c1cc(N2CCN(C)CC2)nc(N)n1 (single isomer, unassigned) [Example 113, 2-(4-{2-[2-Amino-6-(4-methylpiperazin-1-yl)pyrimidin-4-yl]-3-methyl-1,2,3,4-tetrahydroisoquinolin-7-yl}-1H-pyrazol-1-yl)acetamide]",72,–
"CN1CCN(c2cc(N3CCc4ccc(-c5cnc(N6CCN(C(=O)OC(C)(C)C)CC6)nc5)cc4C3)nc(N)n2)CC1 [Example 8, tert-Butyl 4-(5-{2-[2-amino-6-(4-methylpiperazin-1-yl)pyrimidin-4-yl]-1,2,3,4-tetrahydroisoquinolin-7-yl}pyrimidin-2-yl)piperazine-1-carboxylate]",> 1000,35
"CNC(=O)c1cc(-c2ccc3c(c2)CN(c2cc(N4CCN(C)CC4)nc(N)n2)C(C)C3)cn1C (single isomer, unassigned) [Example 87B, 4-{2-[2-Amino-6-(4-methylpiperazin-1-yl)pyrimidin-4-yl]-3-methyl-1,2,3,4-tetrahydroisoquinolin-7-yl}-N,1-dimethyl-1H-pyrrole-2-carboxamide]",–,69
"CC1Cc2ccc(C3CCN(C(=O)C4CC4)CC3)cc2CN1c1cc(N2CCN(C)CC2)nc(N)n1 (stereo not drawn) [Example 150, 4-[7-[1-(Cyclopropylcarbonyl)piperidin-4-yl]-3-methyl-3,4-dihydroisoquinolin-2(1H)-yl]-6-(4-methylpiperazin-1-yl)pyrimidin-2-amine]",22.5,–
"CC1Cc2ccc(-c3cc(C(=O)N4CCC(N(C)C)C4)n(C)c3)cc2CN1c1cc(N2CCN(C)CC2)nc(N)n1 (single isomer, unassigned) [Example 94, 4-[7-(5-{[3-(Dimethylamino)pyrrolidin-1-yl]carbonyl}-1-methyl-1H-pyrrol-3-yl)-3-methyl-3,4-dihydroisoquinolin-2(1H)-yl]-6-(4-methylpiperazin-1-yl)pyrimidin-2-amine]",30,–
"CC1Cc2ccc(-c3ccc(C(=O)N4CCC(N(C)C)C4)nc3)cc2CN1c1cc(N2CCN(C)CC2)nc(N)n1 (stereo not drawn) [Example 57, 4-[7-(6-{[3-(Dimethylamino)pyrrolidin-1-yl]carbonyl}pyridin-3-yl)-3-methyl-3,4-dihydroisoquinolin-2(1H)-yl]-6-(4-methylpiperazin-1-yl)pyrimidin-2-amine]",119,–
"CC1Cc2ccc(-c3ccc(C(=O)N[C@H](C)CO)nc3)cc2CN1c1cc(N2CCN(C)CC2)nc(N)n1 (single isomer, unassigned) [Example 51A]",75,–
"CC1Cc2ccc(-c3ccc(C(=O)N4CC[C@@H](O)C4)nc3)cc2CN1c1cc(N2CCN(C)CC2)nc(N)n1 (single isomer, unassigned) [Example 56B]",172,–
"CN1CCN(c2cc(N3CCc4ccc(N5CCN(C(=O)c6ccco6)CC5)cc4C3)nc(N)n2)CC1 [Example 32, 4-{7-[4-(2-Furoyl)piperazin-1-yl]-3,4-dihydroisoquinolin-2(1H)-yl}-6-(4-methylpiperazin-1-yl)pyrimidin-2-amine]",178,–
"CC1Cc2ccc(-c3ccc(C(=O)N[C@H](C)CO)nc3)cc2CN1c1cc(N2CCN(C)CC2)nc(N)n1 (single isomer, unassigned) [Example 51B]",63,–
"CNC(=O)c1ccc(-c2ccc3c(c2)CN(c2cc(N4CCN(C)CC4)nc(N)n2)C(C)C3)cn1 (single isomer, unassigned) [Example 49B, 5-{2-[2-amino-6-(4-methylpiperazin-1-yl)pyrimidin-4-yl]-3-methyl-1,2,3,4-tetrahydroisoquinolin-7-yl}-N-methylpyridine-2-carboxamide]",38,–
"COCCn1cc(-c2ccc3c(c2)CN(c2cc(N4CCN(C)CC4)nc(N)n2)C(C)C3)cn1 (single isomer, unassigned) [Example 112, 4-[7-[1-(2-Methoxyethyl)-1H-pyrazol-4-yl]-3-methyl-3,4-dihydroisoquinolin-2(1H)-yl]-6-(4-methylpiperazin-1-yl)pyrimidin-2-amine]",40,–
"CC1Cc2ccc(-c3ccnc(C(=O)N(C)CCN(C)C)c3)cc2CN1c1cc(N2CCN(C)CC2)nc(N)n1 (single isomer, unassigned) [Example 68A, 4-{2-[2-amino-6-(4-methylpiperazin-1-yl)pyrimidin-4-yl]-3-methyl-1,2,3,4-tetrahydroisoquinolin-7-yl}-N-[2-(dimethylamino)ethyl]-N-methylpyridine-2-carboxamide]",30,–
"CC1Cc2ccc(-c3cnn(CCC#N)c3)cc2CN1c1cc(N2CCN(C)CC2)nc(N)n1 (single isomer, unassigned) [Example 96B, 3-(4-{2-[2-Amino-6-(4-methylpiperazin-1-yl)pyrimidin-4-yl]-3-methyl-1,2,3,4-tetrahydroisoquinolin-7-yl}-1H-pyrazol-1-yl)propanenitrile]",352,–
"CC1Cc2ccc(-c3ccnc(C(=O)N4CC[C@H](O)C4)c3)cc2CN1c1cc(N2CCN(C)CC2)nc(N)n1 (single isomer, unassigned) [Example 65B]",79,–
"CC1Cc2ccc(-c3ccc4c(c3)NC(=O)CO4)cc2CN1c1cc(N2CCN(C)CC2)nc(N)n1 (stereo not drawn) [Example 131, 6-{2-[2-amino-6-(4-methylpiperazin-1-yl)pyrimidin-4-yl]-3-methyl-1,2,3,4-tetrahydroisoquinolin-7-yl}-2H-1,4-benzoxazin-3(4H)-one]",30,–
"CC1Cc2ccc(-c3ccc4c(c3)CN(C3CC3)C4=O)cc2CN1c1cc(N2CCN(C)CC2)nc(N)n1 (stereo not drawn) [Example 129, 5-{2-[2-Amino-6-(4-methylpiperazin-1-yl)pyrimidin-4-yl]-3-methyl-1,2,3,4-tetrahydroisoquinolin-7-yl}-2-cyclopropylisoindolin-1-one]",112,–
"CC1Cc2ccc(-c3ccnc(C(=O)N4CCC(N(C)C)C4)c3)cc2CN1c1cc(N2CCN(C)CC2)nc(N)n1 (single isomer, unassigned) [Example 67B, 4-[7-(2-{[3-(dimethylamino)pyrrolidin-1-yl]carbonyl}pyridin-4-yl)-3-methyl-3,4-dihydroisoquinolin-2(1H)-yl]-6-(4-methylpiperazin-1-yl)pyrimidin-2-amine]",50,–
"CC1Cc2ccc(-c3cnn(CC4(C#N)CC4)c3)cc2CN1c1cc(N2CCN(C)CC2)nc(N)n1 (single isomer, unassigned) [Example 97A, 1-[(4-{2-[2-amino-6-(4-methylpiperazin-1-yl)pyrimidin-4-yl]-3-methyl-1,2,3,4-tetrahydroisoquinolin-7-yl}-1H-pyrazol-1-yl)methyl]cyclopropanecarbonitrile]",44,–
"CNC(=O)c1ccc(-c2ccc3c(c2)CN(c2cc(N4CCN(C)CC4)nc(N)n2)C(CO)C3)cn1 (single isomer, unassigned) [Example 81B, 5-[2-[2-amino-6-(4-methylpiperazin-1-yl)pyrimidin-4-yl]-3-(hydroxymethyl)-1,2,3,4-tetrahydroisoquinolin-7-yl]-N-methylpyridine-2-carboxamide]",34,–
"CC1Cc2ccc(-c3ccn(Cc4ccncc4)n3)cc2CN1c1cc(N2CCN(C)CC2)nc(N)n1 (single isomer, unassigned) [Example 157, 4-(4-Methylpiperazin-1-yl)-6-[3-methyl-7-[1-(pyridin-4-ylmethyl)-1H-pyrazol-3-yl]-3,4-dihydroisoquinolin-2(1H)-yl]pyrimidin-2-amine]",8.7,–
"CC1Cc2ccc(-c3ccn(CCO)n3)cc2CN1c1cc(N2CCN(C)CC2)nc(N)n1 (single isomer, unassigned) [Example 84B, 2-(3-{2-[2-Amino-6-(4-methylpiperazin-1-yl)pyrimidin-4-yl]-3-methyl-1,2,3,4-tetrahydroisoquinolin-7-yl}-1H-pyrazol-1-yl)ethanol]",–,52
"CN1CCN(c2cc(N3CCCc4ccc(O)cc43)nc(N)n2)CC1 [Example 21, 1-[2-Amino-6-(4-methylpiperazin-1-yl)pyrimidin-4-yl]-1,2,3,4-tetrahydroquinolin-7-ol]",181,–
"CN1CCN(c2cc(N3CCc4ccc(N5CCC(c6ccc(=O)n(C)c6)CC5)cc4C3)nc(N)n2)CC1 [Example 42, 5-(1-{2-[2-Amino-6-(4-methylpiperazin-1-yl)pyrimidin-4-yl]-1,2,3,4-tetrahydroisoquinolin-7-yl}piperidin-4-yl)-1-methylpyridin-2(1H)-one]",81,–
